Laboratory results published in the OligoGym collection.
Where “and” joins values, the source holds several entries; their conditions need not be identical. Equal values may be shown once. After the bases stand the sugars from the 5' end (letter, count) and the backbone: PS all phosphorothioate, else s phosphorothioate and o phosphodiester by linkage. Methylation of C is not given here. e = 2'-O-(2-methoxyethyl) (MOE); d = 2'-deoxy (DNA)

Target: DGAT2
Conditions: ASO

Sequence	target mRNA inhibition (HepG2, 0.12 µM)	target mRNA inhibition (HepG2, 2.5 µM)	target mRNA inhibition (HepG2, 10 µM)	target mRNA inhibition (HepG2, 20 µM)
ATGGGAAAGTAGTCTCGAAA (sugars e5 d10 e5, PS)	0%	–	–	–
GGACCCACTGGAGCACTGAG (sugars e5 d10 e5, PS)	84%	14%	47%	73%
GTCTCTCATAATTGCCAGTT (sugars e5 d10 e5, PS)	–	53% and 66%	83% and 87%	–
CAGGCATGGAGCTCAGAGAC (sugars e2 d13 e5, PS)	70%	–	–	–
GGTCAGCAGGTTGTGTGTCT (sugars e2 d13 e5, PS)	45%	–	–	–
AGCTGTGATGACTTCCCAGG (sugars e5 d10 e5, PS)	–	52%	91%	–
GGCAAAGTAACATACCTGCT (sugars e5 d10 e5, PS)	–	72% and 91%	94%	–
CACAGCGATGAGCCAGC (sugars e3 d10 e4, PS)	–	50% and 31%	–	–
TCCTGGTCCCAGTACTTTCT (sugars e5 d10 e5, PS)	–	71% and 73%	91% and 92%	–
AGCATTGCCACTCCCATTCT (sugars e3 d14 e3, PS)	67%	–	–	–
GGGACTCAGTGTCCTCCTTA (sugars e5 d10 e5, PS)	–	69%	78%	–
GGGAAAGGTCTTCTCCAGCT (sugars e5 d10 e5, PS)	–	86% and 85%	92% and 91%	–
TCTTCACCAGCTGGATGGGA (sugars e5 d10 e5, PS)	50%	–	–	–
AGAGAGACAATGAGTAAGGG (sugars e5 d10 e5, PS)	–	68%	79%	–
TTCATCTTTCCAGATCCGGA (sugars e5 d10 e5, PS)	–	71%	92%	–
AGGTTGTGTGTCTTCACCAG (sugars e2 d13 e5, PS)	61%	–	–	–
TAGGATGCTTAACTTCTGCT (sugars e5 d10 e5, PS)	–	58%	85%	–
GGCACCTGTTACTACATGTC (sugars e5 d10 e5, PS)	–	80% and 75%	94% and 89%	–
GAGATGACCTGTAGCTGCTT (sugars e5 d10 e5, PS)	34%	–	–	–

Sequence	target mRNA inhibition (HepG2, 0.12 µM)	target mRNA inhibition (HepG2, 2.5 µM)	target mRNA inhibition (HepG2, 10 µM)	target mRNA inhibition (HepG2, 20 µM)
CATAGGCCAGGAGGAAGAGT (sugars e5 d10 e5, PS)	35%	–	–	–
TTGTGTGTCTTCACCAGCTG (sugars e2 d13 e5, PS)	71%	–	–	–
CCAAGTAAGCCTCGGTGTCC (sugars e5 d10 e5, PS)	32%	–	–	–
GAAAGTAGTCTCGAAAGTAG (sugars e5 d10 e5, PS)	0%	–	–	–
CTGACCTCAGGGTGATCAAG (sugars e5 d10 e5, PS)	31%	–	–	–
TCACCAGGGCCTCCATGTAC (sugars e2 d13 e5, PS)	3%	–	–	–
GCACTCTCTCTGCACACTCC (sugars e5 d10 e5, PS)	–	61%	87%	–
GTATCCAAAGATATAGTTCC (sugars e5 d10 e5, PS)	8%	–	–	–
TTGGAGTAGGGCACCAGCCC (sugars e5 d10 e5, PS)	16%	–	–	–
CAGAAGGCACCCAGGCCCAT (sugars e5 d10 e5, PS)	33%	–	–	–
ACACGCAGACCAGGACAGCT (sugars e5 d10 e5, PS)	46%	–	–	–
TCCACCTAGCTCATGGTGGC (sugars e5 d10 e5, PS)	21%	–	–	–
AGTTTCGGACCCACTGTGAC (sugars e3 d14 e3, PS)	60%	–	–	–
CCCGGAGTAGGCGGCTATGA (sugars e5 d10 e5, PS)	–	60%	89%	–
TTACTCCACCTAGCTCATGG (sugars e5 d10 e5, PS)	6%	–	–	–
GTACAAGTTTCTCCACCTAT (sugars e5 d10 e5, PS)	–	68% and 88%	79% and 87%	–
GTTCTTCCAACCAGTGTTTG (sugars e5 d10 e5, PS)	–	47%	81%	–
ATCCAAAGATATAGTTCCTG (sugars e5 d10 e5, PS)	39%	–	–	–
